Assay results as given in ChEMBL document CHEMBL2417501, “Synthesis of 4-aminoquinoline-pyrimidine hybrids as potent antimalarials and their mode of action studies” (Eur J Med Chem, 2013).

Legend:
[1] = tested on: mu-oxodimeric heme; assay: Binding affinity to mu-oxodimericheme (unknown origin) in phosphate buffer at pH 5.8 at 1 to 25 uM by UV-visible spectrophotometry
[2] = tested on: Sindbis virus; assay: Antiviral activity against Sindbis virus infected in african green monkey Vero cells assessed as reduction of virus-induced cytopathogenicity; type: functional, organism-based
[3] = tested on: Influenza B virus; assay: Antiviral activity against influenza B virus infected in dog MDCK cells assessed as reduction of virus-induced cytopathogenicity by MTS assay; type: functional, organism-based
[4] = tested on: Human respirovirus 3; assay: Antiviral activity against Parainfluenza-3 virus infected in african green monkey Vero cells assessed as reduction of virus-induced cytopathogenicity; type: functional, organism-based; conditions: Human respirovirus 3, Vero
[5] = tested on: Coxsackievirus; assay: Antiviral activity against Coxsackievirus B4 infected in african green monkey Vero cells assessed as reduction of virus-induced cytopathogenicity; type: functional, organism-based
[6] = tested on: Human alphaherpesvirus 1; assay: Antiviral activity against Herpes simplex virus-1 KOS infected in human HEL cells assessed as reduction of virus-induced cytopathogenicity; type: functional, organism-based; conditions: Human alphaherpesvirus 1, KOS
[7] = tested on: Cytomegalovirus; assay: Antiviral activity against Cytomegalovirus AD-169 infected in human HEL cells assessed as reduction of plaque formation; type: functional, organism-based; conditions: Human betaherpesvirus 5, AD-169, HEL
[8] = Cytotoxicity against human HeLa cells; type: cell-based
[9] = tested on: Human alphaherpesvirus 3; assay: Antiviral activity against […] Varicella-zoster virus 07-1 infected in human HEL cells assessed as reduction of plaque formation; type: functional, organism-based; conditions: Human alphaherpesvirus 3, 07-1, HEL
[10] = Cytotoxicity against human HEL cells; type: cell-based
[11] = tested on: DNA; assay: Binding affinity to calf thymus DNA at 30 uM by fluorescence assay; type: nucleic-acid assay; conditions: Bos taurus
[12] = Selectivity index, ratio of CC50 for MDCK cells to IC50 for chloroquine-resistant Plasmodium falciparum Dd2; type: functional
[13] = tested on: Vesicular stomatitis virus; assay: Antiviral activity against Vesicular stomatitis virus infected in human HEL cells assessed as reduction of virus-induced cytopathogenicity; type: functional, organism-based
[14] = tested on: Heme; assay: Binding affinity to monomeric heme (unknown origin) in HEPES buffer at pH 7.4 at 1 to 25 uM by UV-visible spectrophotometry
[15] = Cytotoxicity against cat CRFK cells; type: cell-based, Felis catus
[16] = Inhibition of beta-hematin formation at 1 mg/ml; type: functional
[17] = tested on: Punta Toro virus; assay: Antiviral activity against […] infected in african green monkey Vero cells assessed as reduction of virus-induced cytopathogenicity; type: functional, organism-based
[18] = tested on: DNA; assay: Binding affinity to calf thymus DNA assessed as change in melting temperature at 30 uM by UV-visible spectrophotometry; type: nucleic-acid assay; conditions: Bos taurus
[19] = tested on: Heme; assay: Binding affinity to monomeric heme (unknown origin) in MES buffer at pH 5.6 at 1 to 25 uM by UV-visible spectrophotometry
[20] = Cytotoxicity against african green monkey Vero cells; type: cell-based; conditions: chlorocebus sabaeus
[21] = tested on: Human alphaherpesvirus 3; assay: Antiviral activity against TK-positive Varicella-zoster virus OKA infected in human HEL cells assessed as reduction of plaque formation; type: functional, cell-based; conditions: Human alphaherpesvirus 3, strain Oka vaccine
[22] = tested on: DNA; assay: Binding affinity to calf thymus DNA assessed as compound DNA intercalation measured as hypochromatic shift at 330 nm at 30 uM by UV-visible spectrophotometry; type: nucleic-acid assay; conditions: Bos taurus
[23] = tested on: Felid alphaherpesvirus 1; assay: Antiviral activity against feline herpesvirus infected in cat CRFK cells assessed as reduction of virus-induced cytopathogenicity by MTS assay; type: functional, organism-based; conditions: Felid alphaherpesvirus 1, CRFK
[24] = tested on: Mammalian orthoreovirus 1; assay: Antiviral activity against Reovirus-1 infected in african green monkey Vero cells assessed as reduction of virus-induced cytopathogenicity; type: functional, organism-based; conditions: Mammalian orthoreovirus 1, Vero
[25] = tested on: Coxsackievirus; assay: Antiviral activity against Coxsackievirus B4 infected in human HeLa cells assessed as reduction of virus-induced cytopathogenicity; type: functional, organism-based
[26] = tested on: Human alphaherpesvirus 1; assay: Antiviral activity against TK-negative Herpes simplex virus 1 KOS infected in human HEL cells assessed as reduction of virus-induced cytopathogenicity; type: functional, organism-based; conditions: Human alphaherpesvirus 1, KOS
[27] = (§1) Cytotoxicity against MDCK cells assessed as cell viability after 4 days by MTS assay; type: cell-based, Canis lupus familiaris; conditions: dog, MDCK cells
[28] = tested on: MDCK; assay: as §1; type: cell-based, Canis lupus familiaris; conditions: dog, mdck, 96 h
[29] = tested on: Cytomegalovirus; assay: Antiviral activity against Cytomegalovirus Davis infected in human HEL cells assessed as reduction of plaque formation; type: functional, organism-based; conditions: Human betaherpesvirus 5, Davis
[30] = tested on: Influenza A virus; assay: Antiviral activity against influenza A virus H1N1 subtype infected in dog MDCK cells assessed as reduction of virus-induced cytopathogenicity by MTS assay; type: functional, organism-based
[31] = tested on: Respiratory syncytial virus; assay: Antiviral activity against Respiratory syncytial virus infected in human HeLa cells assessed as reduction of virus-induced cytopathogenicity; type: functional, organism-based
[32] = tested on: Plasmodium falciparum; assay: Antimalarial activity against chloroquine-resistant Plasmodium falciparum Dd2; type: functional, organism-based
[33] = tested on: DNA; assay: Binding affinity to calf thymus DNA assessed as compound DNA intercalation measured as hypochromatic shift at 255 nm at 30 uM by UV-visible spectrophotometry; type: nucleic-acid assay; conditions: Bos taurus
[34] = tested on: Influenza A virus; assay: Antiviral activity against influenza A virus […] subtype infected in dog MDCK cells assessed as reduction of virus-induced cytopathogenicity by MTS assay; type: functional, organism-based; conditions: read-out: EC50
[35] = tested on: Feline coronavirus; assay: Antiviral activity against Feline coronavirus infected in cat CRFK cells assessed as reduction of virus-induced cytopathogenicity by MTS assay; type: functional, organism-based; conditions: Alphacoronavirus 1, CRFK
[36] = tested on: Vesicular stomatitis virus; assay: Antiviral activity against Vesicular stomatitis virus infected in human HeLa cells assessed as reduction of virus-induced cytopathogenicity; type: functional, organism-based
[37] = tested on: Escherichia coli; assay: Binding affinity to Escherichia coli pUC18 DNA at 30 uM by fluorescence assay
[38] = tested on: Human alphaherpesvirus 2; assay: Antiviral activity against Herpes simplex virus-2 G infected in human HEL cells assessed as reduction of virus-induced cytopathogenicity; type: functional, organism-based; conditions: Human alphaherpesvirus 2, strain G
[39] = tested on: Plasmodium falciparum; assay: Antimalarial activity against chloroquine-sensitive Plasmodium falciparum D10 by two-fold dilution technique; type: functional, organism-based

SMILES | EC50 [2] | EC50 [3] | EC50 [4] | EC50 [5] | EC50 [6] | EC50 [7] | MCC [8] | EC50 [9] | MCC [10] | Ratio CC50/IC50 [12] | EC50 [13] | inhibition [16] | EC50 [17] | MCC [20] | EC50 [21] | EC50 [23] | EC50 [24] | EC50 [25] | EC50 [26] | MCC at 96 h [27] | other results
Cc1nc(NCCCCNc2ccnc3cc(Cl)ccc23)nc(-c2ccccc2)c1C(=O)OC(C)C | > 4 µM | > 0.16 µM | > 4 µM | > 4 µM | > 4 µM | > 4 µM | > 100 µM | > 4 µM | 20 µM | 3.92 | > 4 µM | 72% | > 4 µM | 20 µM | 4 µM | > 20 µM | > 4 µM | > 100 µM | > 4 µM | 800 nM | log K [1]: 5.72; log K [11]: 5.76; log K [14]: 4.96; CC50 ([15]; crfk): 50.6 µM; ΔTm [18]: 7.5 °C; log K [19]: 4.58; Activity [22]: 37%; CC50 [28]: 0.6 µM; EC50 [29]: > 4 µM; EC50 [30]: > 0.16 µM; EC50 [31]: > 100 µM; IC50 [32]: 0.153 µM; Activity [33]: 112%; EC50 [34]: > 0.16 µM; EC50 [35]: > 20 µM; EC50 [36]: > 100 µM; log K [37]: 5.73; EC50 [38]: > 4 µM
CCOC(=O)c1cnc(NCCCCNc2ccnc3cc(Cl)ccc23)nc1C | > 20 µM | > 4 µM | > 20 µM | > 20 µM | > 100 µM | > 20 µM | 100 µM | > 20 µM | ≥ 100 µM | 30.65 | > 100 µM | 58% | > 20 µM | 100 µM | > 20 µM | > 100 µM | > 20 µM | > 20 µM | > 100 µM | ≥ 4000 nM | CC50 ([15]; CRFK cells): > 100 µM; CC50 at 96 h [27]: 10.3 µM; EC50 [29]: > 20 µM; EC50 [30]: > 4 µM; EC50 [31]: > 20 µM; IC50 [32]: 0.336 µM; EC50 [34]: > 4 µM; EC50 [35]: > 100 µM; EC50 [36]: > 20 µM; EC50 [38]: > 100 µM; IC50 [39]: 0.211 µM
COC(=O)c1c(C)nc(NCCCNc2ccnc3cc(Cl)ccc23)nc1-c1ccccc1 | > 4 µM | > 0.16 µM | > 4 µM | > 4 µM | > 20 µM | 10.9 µM | 100 µM | > 4 µM | ≥ 20 µM | 3.13 | > 20 µM | 46% | > 4 µM | 20 µM | > 4 µM | > 20 µM | > 4 µM | > 20 µM | > 20 µM | 800 nM | CC50 ([15]; crfk): 25.1 µM; CC50 [28]: 1.7 µM; EC50 [29]: 15.3 µM; EC50 [30]: > 0.16 µM; EC50 [31]: > 20 µM; IC50 [32]: 0.542 µM; EC50 [34]: > 0.16 µM; EC50 [35]: 1.1 µM; EC50 [36]: > 20 µM; EC50 [38]: > 20 µM; IC50 [39]: 0.659 µM
CCN(CC)CCCC(C)Nc1ccnc2cc(Cl)ccc12 (configuration not stated) | – | – | – | – | – | – | – | – | – | – | – | 98% | – | – | – | – | – | – | – | – | ΔTm [18]: 9 °C
